Data as given in ChEMBL document CHEMBL1201862, “PubChem BioAssay data set” (2004).
Active and inactive are the calls of the source.

Assays:
Large T antigen = Large T antigen (Simian virus 40, UniProt P03070); type: functional, Betapolyomavirus macacae;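 note: Confirmatory-stage PubChem screen for compounds that inhibit SV40 T antigen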
[1] = target: Dual specificity tyrosine-phosphorylation-regulated kinase 1A (Rattus norvegicus, UniProt Q63470); type: biochemical, Homo sapiens
[2] = target: Ras and Rab interactor 1/Tyrosine-protein kinase ABL1 (Homo sapiens, UniProt P00519+Q13671); type: functional;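 note: biochemical TR-FRET dose-response test measuring inhibition of binding between Rin1 and Abl proteins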
[3] = target: Cyclin-dependent kinase 5/CDK5 activator 1 (Homo sapiens, UniProt Q00535); test: blockade of human CDK5 activity – biochemical, cherry-picked samples, set 2, dose response (AID 504545)
SUMO-activating enzyme [4] = target: T1, SUMO-activating enzyme (Homo sapiens, UniProt Q9UBT2); test: blockers of UBC9-mediated SUMO conjugation – biochemical, AlphaScreen, SUMOylation inhibitor project, confirmation (AID 2018); type: functional
SUMO-activating enzyme [5] = target: T1, SUMO-activating enzyme; test: blockers of SAE1/SAE2–UBC9 SUMO transfer – biochemical, HTRF, uHTS, primary screen (AID 2006); type: protein-complex assay
[6] = target: Induced myeloid leukemia cell differentiation protein Mcl-1 (Homo sapiens, UniProt Q07820); type: functional
A-375 [7] = test: proliferation inhibition in MITF-low A375 cells – cell-based, cherry-pick samples, set 2, counter-screen for MITF modulator project, dose response (AID 540335); type: functional; details: Homo sapiens
A-375 [8] = test: MITF: Counter assay: A375 proliferation Measured in Cell-Based System Using Plate Reader - 2084-03_Inhibitor_Dose_DryPowder_Activity. [Related pubchem assays (depositor defined):AID488944]; type: functional; details: Homo sapiens
[9] = target: Voltage-gated inwardly rectifying potassium channel KCNH2 (Homo sapiens, UniProt Q12809); details: Potency;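 note: confirmatory quantitative high-throughput screen measuring inhibition of hERG channel activity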
[10] = target: Beta-adrenergic receptor kinase 1 (Homo sapiens, UniProt P25098); test: blockers of aptamer binding to GRK2 – biochemical, flow cytometry beads, FAM-aptamer, powder set 1, dose response (AID 588720)
Escherichia coli = test: microbe, parasite or virus in culture

T1 sequence (Q9UBE0 whole entry): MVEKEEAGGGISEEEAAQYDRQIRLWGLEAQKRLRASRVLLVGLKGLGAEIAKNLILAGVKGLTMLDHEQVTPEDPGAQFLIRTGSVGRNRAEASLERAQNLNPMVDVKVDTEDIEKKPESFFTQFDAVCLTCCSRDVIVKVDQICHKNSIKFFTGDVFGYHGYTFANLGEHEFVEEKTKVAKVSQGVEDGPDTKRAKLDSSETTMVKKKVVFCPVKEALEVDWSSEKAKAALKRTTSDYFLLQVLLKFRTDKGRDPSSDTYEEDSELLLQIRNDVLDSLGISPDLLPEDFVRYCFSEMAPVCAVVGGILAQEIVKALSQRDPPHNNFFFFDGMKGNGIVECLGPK
T1 sequence (Q9UBT2 whole entry): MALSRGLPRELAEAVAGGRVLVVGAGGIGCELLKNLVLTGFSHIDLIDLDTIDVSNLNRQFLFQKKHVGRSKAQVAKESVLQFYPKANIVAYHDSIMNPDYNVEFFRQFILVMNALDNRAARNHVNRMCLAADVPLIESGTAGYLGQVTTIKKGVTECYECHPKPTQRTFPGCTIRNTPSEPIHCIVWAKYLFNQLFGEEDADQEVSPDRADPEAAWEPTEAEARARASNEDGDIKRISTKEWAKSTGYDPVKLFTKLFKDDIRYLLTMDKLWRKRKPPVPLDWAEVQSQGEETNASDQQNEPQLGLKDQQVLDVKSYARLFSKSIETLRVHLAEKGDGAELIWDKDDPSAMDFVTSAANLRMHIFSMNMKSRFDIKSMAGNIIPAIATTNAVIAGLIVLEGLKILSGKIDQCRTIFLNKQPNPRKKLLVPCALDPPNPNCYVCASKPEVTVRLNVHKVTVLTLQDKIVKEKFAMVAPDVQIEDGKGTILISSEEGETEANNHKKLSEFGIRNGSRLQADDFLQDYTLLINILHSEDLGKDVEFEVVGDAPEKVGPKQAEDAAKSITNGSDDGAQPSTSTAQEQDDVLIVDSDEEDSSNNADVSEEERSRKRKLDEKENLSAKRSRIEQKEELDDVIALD
Large T antigen, sequence (P03070 whole entry): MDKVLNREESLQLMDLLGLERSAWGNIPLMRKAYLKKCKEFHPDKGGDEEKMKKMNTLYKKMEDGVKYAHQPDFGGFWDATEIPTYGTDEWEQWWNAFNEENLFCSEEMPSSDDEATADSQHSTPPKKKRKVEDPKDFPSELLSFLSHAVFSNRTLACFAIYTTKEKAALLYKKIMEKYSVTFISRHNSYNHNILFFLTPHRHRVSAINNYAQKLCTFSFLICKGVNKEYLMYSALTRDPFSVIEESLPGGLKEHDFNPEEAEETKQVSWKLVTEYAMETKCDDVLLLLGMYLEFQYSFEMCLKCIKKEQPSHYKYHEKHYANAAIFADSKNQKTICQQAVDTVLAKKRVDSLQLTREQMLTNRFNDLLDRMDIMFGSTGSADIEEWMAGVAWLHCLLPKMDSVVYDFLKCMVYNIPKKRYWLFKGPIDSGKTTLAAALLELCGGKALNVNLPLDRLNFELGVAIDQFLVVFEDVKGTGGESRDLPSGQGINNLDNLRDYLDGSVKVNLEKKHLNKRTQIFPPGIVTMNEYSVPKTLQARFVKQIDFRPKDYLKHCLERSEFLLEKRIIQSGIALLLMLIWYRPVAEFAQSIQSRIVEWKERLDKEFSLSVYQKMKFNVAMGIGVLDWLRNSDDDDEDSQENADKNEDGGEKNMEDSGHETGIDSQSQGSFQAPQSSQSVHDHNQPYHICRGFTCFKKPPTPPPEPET
Induced myeloid leukemia cell differentiation protein Mcl-1, sequence (Q07820 whole entry): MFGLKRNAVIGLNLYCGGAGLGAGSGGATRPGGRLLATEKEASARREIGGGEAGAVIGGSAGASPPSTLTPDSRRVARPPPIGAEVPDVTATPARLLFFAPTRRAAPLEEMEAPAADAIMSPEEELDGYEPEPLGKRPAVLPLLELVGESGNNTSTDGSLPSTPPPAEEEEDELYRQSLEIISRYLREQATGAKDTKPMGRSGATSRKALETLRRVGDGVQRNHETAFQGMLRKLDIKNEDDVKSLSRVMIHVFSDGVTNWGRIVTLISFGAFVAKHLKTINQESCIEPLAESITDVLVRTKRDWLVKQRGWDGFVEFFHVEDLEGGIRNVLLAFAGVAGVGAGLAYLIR
Ras and Rab interactor 1/Tyrosine-protein kinase ABL1, sequence (P00519 whole entry): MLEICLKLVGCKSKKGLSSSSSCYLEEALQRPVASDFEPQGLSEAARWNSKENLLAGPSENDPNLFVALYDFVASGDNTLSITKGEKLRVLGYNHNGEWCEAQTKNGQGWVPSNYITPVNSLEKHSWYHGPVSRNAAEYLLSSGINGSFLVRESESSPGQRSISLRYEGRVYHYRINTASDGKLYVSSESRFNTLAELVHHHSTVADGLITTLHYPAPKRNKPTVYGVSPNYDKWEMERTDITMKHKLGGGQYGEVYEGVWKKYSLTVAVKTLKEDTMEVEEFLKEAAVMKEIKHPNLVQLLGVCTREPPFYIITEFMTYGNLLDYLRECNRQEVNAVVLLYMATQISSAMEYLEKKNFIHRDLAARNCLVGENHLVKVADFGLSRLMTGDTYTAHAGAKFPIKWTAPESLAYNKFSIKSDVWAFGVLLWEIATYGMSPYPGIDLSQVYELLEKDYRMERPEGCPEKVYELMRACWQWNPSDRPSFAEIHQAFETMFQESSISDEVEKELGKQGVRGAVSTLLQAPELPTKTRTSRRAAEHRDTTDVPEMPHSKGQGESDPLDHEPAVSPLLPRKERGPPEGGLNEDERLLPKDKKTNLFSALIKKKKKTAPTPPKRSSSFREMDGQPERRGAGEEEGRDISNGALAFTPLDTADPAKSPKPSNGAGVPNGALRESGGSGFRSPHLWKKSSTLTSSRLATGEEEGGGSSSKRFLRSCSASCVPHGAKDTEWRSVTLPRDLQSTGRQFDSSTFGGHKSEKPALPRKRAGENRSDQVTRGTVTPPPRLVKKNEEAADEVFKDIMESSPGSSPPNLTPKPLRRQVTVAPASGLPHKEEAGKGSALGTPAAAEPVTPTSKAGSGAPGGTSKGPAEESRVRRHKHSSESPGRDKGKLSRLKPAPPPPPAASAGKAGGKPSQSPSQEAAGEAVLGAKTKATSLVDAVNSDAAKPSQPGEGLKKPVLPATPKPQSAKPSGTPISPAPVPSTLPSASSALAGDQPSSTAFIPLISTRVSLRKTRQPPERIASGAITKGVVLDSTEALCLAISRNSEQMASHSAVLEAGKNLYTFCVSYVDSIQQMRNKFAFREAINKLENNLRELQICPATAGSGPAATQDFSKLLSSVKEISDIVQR
Ras and Rab interactor 1/Tyrosine-protein kinase ABL1, sequence (Q13671 whole entry): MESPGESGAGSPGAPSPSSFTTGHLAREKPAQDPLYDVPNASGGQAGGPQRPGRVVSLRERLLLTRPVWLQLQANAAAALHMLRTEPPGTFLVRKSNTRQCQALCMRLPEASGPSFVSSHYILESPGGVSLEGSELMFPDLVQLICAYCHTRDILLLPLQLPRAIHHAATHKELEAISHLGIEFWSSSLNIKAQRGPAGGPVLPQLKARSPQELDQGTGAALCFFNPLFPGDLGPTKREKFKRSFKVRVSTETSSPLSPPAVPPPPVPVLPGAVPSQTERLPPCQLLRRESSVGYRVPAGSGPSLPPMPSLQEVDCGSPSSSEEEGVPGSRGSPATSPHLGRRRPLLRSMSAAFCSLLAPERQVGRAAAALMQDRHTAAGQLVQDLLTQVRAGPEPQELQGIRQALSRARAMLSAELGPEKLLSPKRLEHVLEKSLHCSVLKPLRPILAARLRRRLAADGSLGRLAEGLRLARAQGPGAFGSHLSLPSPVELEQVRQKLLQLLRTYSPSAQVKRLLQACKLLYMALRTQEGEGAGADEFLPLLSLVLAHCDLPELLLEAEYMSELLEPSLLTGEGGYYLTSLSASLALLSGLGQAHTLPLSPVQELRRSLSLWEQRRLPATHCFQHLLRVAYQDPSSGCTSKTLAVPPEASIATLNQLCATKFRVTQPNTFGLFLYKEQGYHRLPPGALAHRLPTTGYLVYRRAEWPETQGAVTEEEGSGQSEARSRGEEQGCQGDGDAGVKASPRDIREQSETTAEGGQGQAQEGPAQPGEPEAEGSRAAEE
Beta-adrenergic receptor kinase 1, sequence (P25098 whole entry): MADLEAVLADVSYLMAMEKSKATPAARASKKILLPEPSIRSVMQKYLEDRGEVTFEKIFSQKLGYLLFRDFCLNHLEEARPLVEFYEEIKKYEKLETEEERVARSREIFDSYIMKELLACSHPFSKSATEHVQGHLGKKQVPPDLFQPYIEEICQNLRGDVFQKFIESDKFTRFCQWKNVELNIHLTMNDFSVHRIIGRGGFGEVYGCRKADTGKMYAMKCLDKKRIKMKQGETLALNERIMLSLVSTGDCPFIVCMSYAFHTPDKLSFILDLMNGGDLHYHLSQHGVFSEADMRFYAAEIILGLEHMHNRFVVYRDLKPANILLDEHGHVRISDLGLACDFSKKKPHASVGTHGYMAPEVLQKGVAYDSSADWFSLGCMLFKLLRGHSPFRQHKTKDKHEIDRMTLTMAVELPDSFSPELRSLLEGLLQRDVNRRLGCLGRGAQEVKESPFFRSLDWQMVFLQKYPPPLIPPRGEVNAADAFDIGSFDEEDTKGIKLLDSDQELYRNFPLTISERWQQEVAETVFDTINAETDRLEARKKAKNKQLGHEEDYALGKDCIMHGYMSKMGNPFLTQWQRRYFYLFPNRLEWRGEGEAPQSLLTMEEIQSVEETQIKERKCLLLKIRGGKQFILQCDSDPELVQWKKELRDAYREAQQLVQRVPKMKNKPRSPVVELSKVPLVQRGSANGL

COc1cc2c(ccc3cc(OC)c(OC)c(O)c32)cc1O
IC50 (Large T antigen): 9.72 µM (active)
AC50 [1]: 0.406 µM (active)
IC50 [2]: 35.2 µM (inactive)
AC50 [3]: 2.19 µM (active)
IC50 (SUMO-activating enzyme [4]): 2.89 µM (active)
IC50 (SUMO-activating enzyme [5]): 13.9 µM (active)
IC50 [6]: 1.95 µM (active)

COc1ccc(CCC(=O)N2CCc3ccccc32)cc1
AC50 (A-375 [7]): > 35 µM (active)
AC50 (A-375 [8]): > 35 µM (active)

C[N+]1(C)C2CCC1CC(OC(=O)c1c[nH]c3ccccc13)C2 (configuration not stated)
AC50 [9]: 25.1 µM (inconclusive)

CCOc1ccc(CCNC(=O)CCS(=O)(=O)c2ccc(Br)cc2)cc1OCC
EC50 [10]: 17.7 µM (inactive)

CCOC(=O)c1ccc(NC(=O)c2cn(CCC#N)nc2-c2ccc3c(c2)OCCO3)cc1
AC50 (Escherichia coli): 30.3 µM (active)
